Targets include RIOK1 (Homo sapiens, UniProt Q9BRS2); TNK2 (Homo sapiens, UniProt Q07912); PAK2 (Homo sapiens, UniProt Q13177); MKNK2 (Homo sapiens, UniProt Q9HBH9); HIPK4 (Homo sapiens, UniProt Q8NE63); LIMK1 (Homo sapiens, UniProt P53667); FGFR4 (Homo sapiens, UniProt P22455); ROCK2 (Homo sapiens, UniProt O75116); MAPKAPK2 (Homo sapiens, UniProt P49137); CSNK1G3 (Homo sapiens, UniProt Q9Y6M4); CDKL3 (Homo sapiens, UniProt Q8IVW4); MYLK4 (Homo sapiens, UniProt Q86YV6); DAPK3 (Homo sapiens, UniProt O43293); TESK1 (Homo sapiens, UniProt Q15569); SRPK1 (Homo sapiens, UniProt Q96SB4); TXK (Homo sapiens, UniProt P42681); NEK4 (Homo sapiens, UniProt P51957).

What all share (experiment): biochemical
What all share (design): KINOMEscan active-site-directed competition binding panel, 468 kinases, percent of DMSO control at 1 uM
Conditions in all cases: KINOMEscan binding, percent of DMSO control; read-out: Ctrl%

The target of another experiment is T1, PRP4 (Homo sapiens, UniProt Q13523).
T1 construct: gene PRPF4B

Experiment [1] concerns the target T2, RPS6KA5(Kin.Dom.1-N-terminal) (Homo sapiens, UniProt O75582).
T2 construct: Kin.Dom.1-N-terminal

For the next experiment, the target named is T3, LZK (Homo sapiens, UniProt O43283).
T3 construct: gene MAP3K13

The next experiment deals with T4, PIP5K2C (Homo sapiens, UniProt Q8TBX8).
T4 construct: gene PIP4K2C

A further experiment has as its target T5, PKAC-beta (Homo sapiens, UniProt P22694).
T5 construct: gene PRKACB

In the next experiment the target is T6, RIPK5 (Homo sapiens, UniProt Q6XUX3).
T6 construct: gene DSTYK
T6 sequence (Q6XUX3 whole entry): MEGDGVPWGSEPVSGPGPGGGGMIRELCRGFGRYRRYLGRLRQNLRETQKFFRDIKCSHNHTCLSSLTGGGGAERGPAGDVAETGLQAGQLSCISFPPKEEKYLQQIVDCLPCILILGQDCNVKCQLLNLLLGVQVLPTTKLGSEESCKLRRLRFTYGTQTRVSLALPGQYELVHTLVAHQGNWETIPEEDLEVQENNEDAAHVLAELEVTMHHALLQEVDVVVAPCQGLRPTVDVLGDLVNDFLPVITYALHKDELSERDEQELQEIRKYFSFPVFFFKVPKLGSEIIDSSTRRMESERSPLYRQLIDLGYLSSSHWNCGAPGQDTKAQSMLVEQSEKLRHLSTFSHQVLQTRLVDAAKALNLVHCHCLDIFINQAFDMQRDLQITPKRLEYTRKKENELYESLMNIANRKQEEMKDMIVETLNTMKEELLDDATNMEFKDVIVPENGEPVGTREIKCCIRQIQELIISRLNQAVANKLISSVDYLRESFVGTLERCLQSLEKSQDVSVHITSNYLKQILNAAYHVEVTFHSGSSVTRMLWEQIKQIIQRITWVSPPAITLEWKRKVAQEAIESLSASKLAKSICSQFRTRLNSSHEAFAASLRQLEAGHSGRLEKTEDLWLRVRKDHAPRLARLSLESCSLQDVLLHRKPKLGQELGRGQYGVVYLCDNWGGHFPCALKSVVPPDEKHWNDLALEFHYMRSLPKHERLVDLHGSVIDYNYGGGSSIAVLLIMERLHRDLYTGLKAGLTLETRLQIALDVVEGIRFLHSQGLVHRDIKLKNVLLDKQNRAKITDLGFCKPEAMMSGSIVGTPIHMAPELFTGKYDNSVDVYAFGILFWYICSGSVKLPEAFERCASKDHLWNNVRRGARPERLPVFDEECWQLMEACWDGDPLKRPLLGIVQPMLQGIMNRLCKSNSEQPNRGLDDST

In the next experiment the target is T7, ERK4 (Homo sapiens, UniProt P31152).
T7 construct: gene MAPK4

CSNK1G3, sequence (Q9Y6M4 whole entry): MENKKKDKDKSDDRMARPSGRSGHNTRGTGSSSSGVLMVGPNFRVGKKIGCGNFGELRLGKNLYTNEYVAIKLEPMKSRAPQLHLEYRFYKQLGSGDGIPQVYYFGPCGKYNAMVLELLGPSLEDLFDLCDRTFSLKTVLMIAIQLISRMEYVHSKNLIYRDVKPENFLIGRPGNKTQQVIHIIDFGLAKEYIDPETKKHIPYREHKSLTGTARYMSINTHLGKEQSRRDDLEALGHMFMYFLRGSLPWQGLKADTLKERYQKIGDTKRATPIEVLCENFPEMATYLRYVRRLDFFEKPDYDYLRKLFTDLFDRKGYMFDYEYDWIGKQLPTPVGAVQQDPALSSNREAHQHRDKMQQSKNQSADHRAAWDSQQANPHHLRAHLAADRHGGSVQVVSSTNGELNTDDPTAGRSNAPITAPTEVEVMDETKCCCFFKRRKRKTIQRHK
LIMK1, sequence (P53667 whole entry): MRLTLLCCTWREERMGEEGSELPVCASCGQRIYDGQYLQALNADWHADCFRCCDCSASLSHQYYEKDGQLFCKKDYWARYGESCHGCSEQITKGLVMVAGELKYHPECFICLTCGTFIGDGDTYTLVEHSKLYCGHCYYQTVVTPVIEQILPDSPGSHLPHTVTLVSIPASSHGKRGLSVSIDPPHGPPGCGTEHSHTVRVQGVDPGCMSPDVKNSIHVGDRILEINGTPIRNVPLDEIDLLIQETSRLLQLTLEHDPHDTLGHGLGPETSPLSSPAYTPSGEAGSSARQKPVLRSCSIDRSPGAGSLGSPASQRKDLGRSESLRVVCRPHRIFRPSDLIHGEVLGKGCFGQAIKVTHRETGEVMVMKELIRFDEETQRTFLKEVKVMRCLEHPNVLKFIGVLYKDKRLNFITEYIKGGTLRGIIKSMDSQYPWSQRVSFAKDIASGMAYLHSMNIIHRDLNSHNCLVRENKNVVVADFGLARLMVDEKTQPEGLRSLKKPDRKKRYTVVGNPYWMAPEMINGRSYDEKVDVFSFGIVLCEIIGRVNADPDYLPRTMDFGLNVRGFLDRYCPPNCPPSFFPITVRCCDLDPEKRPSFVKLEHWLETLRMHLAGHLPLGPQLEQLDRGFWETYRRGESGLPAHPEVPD
DAPK3, sequence (O43293 whole entry): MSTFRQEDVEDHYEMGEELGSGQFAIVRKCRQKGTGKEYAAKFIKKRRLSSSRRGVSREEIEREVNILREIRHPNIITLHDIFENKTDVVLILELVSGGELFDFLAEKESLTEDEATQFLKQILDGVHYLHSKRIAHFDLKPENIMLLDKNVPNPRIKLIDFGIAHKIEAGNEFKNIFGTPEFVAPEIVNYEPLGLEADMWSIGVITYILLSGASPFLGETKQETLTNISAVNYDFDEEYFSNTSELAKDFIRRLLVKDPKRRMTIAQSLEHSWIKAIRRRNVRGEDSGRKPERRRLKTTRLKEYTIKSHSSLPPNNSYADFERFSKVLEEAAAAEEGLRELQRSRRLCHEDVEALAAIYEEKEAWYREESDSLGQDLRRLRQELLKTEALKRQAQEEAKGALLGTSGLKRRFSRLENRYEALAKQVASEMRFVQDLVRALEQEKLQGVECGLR
TNK2, sequence (Q07912 whole entry): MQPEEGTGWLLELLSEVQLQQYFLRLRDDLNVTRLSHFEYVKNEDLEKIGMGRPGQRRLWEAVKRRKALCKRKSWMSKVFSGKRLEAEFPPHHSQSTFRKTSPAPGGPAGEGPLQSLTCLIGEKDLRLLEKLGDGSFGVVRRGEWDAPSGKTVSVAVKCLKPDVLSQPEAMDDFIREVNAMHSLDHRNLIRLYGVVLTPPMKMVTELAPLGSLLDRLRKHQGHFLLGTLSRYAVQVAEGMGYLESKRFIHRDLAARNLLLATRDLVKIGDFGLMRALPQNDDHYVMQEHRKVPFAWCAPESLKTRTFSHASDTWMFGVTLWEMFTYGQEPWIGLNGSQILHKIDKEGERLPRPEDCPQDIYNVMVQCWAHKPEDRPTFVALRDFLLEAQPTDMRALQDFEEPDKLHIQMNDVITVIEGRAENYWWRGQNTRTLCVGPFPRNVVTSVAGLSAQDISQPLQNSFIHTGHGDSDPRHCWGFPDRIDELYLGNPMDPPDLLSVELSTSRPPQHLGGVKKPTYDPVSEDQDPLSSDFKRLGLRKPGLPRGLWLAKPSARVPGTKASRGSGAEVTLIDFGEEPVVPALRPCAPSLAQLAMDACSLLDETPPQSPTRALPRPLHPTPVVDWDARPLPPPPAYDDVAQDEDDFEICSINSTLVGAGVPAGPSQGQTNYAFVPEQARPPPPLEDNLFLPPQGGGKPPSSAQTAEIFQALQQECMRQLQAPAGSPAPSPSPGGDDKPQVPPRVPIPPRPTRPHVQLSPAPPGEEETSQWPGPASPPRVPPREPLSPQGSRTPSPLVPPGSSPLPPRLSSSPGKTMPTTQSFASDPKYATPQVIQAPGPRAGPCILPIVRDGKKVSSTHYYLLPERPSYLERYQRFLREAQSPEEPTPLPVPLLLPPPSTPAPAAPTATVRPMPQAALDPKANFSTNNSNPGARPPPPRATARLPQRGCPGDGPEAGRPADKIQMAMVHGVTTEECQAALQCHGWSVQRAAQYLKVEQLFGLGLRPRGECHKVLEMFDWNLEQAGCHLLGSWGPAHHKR
NEK4, sequence (P51957 whole entry): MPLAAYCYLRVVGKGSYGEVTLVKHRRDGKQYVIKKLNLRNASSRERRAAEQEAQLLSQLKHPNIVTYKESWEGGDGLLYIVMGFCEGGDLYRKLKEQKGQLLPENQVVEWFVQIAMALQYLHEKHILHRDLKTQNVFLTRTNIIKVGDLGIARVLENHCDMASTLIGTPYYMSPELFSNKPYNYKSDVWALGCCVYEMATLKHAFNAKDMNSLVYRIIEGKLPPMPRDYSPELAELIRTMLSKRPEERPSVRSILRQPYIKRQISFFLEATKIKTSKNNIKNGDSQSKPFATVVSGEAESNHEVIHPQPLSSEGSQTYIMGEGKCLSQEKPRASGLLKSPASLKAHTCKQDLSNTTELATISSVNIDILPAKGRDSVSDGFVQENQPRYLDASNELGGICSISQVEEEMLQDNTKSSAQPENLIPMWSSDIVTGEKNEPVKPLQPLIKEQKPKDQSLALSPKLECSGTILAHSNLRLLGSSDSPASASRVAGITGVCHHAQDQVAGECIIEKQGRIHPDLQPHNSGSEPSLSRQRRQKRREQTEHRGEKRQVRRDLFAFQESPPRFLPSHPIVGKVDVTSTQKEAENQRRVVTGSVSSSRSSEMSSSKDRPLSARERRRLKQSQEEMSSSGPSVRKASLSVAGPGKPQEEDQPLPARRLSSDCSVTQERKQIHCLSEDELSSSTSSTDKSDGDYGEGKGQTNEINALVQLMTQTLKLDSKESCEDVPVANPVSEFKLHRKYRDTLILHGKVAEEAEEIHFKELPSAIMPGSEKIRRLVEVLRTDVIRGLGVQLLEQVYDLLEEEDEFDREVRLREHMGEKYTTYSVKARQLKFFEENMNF
MYLK4, sequence (Q86YV6 whole entry): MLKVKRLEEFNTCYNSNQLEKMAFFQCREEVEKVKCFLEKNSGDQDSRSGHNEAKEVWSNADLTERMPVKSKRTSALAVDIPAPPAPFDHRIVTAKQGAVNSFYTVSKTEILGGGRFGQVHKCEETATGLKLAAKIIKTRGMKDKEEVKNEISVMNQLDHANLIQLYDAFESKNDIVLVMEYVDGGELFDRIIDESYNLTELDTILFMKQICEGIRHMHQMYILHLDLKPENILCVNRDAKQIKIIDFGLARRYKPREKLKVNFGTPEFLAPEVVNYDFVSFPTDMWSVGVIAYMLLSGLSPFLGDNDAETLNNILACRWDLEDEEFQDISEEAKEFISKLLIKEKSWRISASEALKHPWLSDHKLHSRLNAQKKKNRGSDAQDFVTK

Take `Cc1ccc(NC(=O)c2cccc(C(F)(F)F)c2)cc1Nc1cc(-c2cccnc2)nc2[nH]ccc12` [HZX-02-059]: the remaining binding at 1 µM on PRP4 stood at 69%; at RIOK1, 98%; in experiment [1] it was 94%; on TNK2, 98%; at PAK2 it was 88%; at MKNK2 it was 80%. In addition, the remaining binding at 1 µM worked out at 100% on LZK; 86% on HIPK4; 43% at PIP5K2C; 95% at PKAC-beta; 72% at LIMK1; 100% at RIPK5. Besides, the remaining binding at 1 µM at FGFR4 turned out to be 91%; at ROCK2, 100%; at MAPKAPK2, 80%; at CSNK1G3, 100%; on CDKL3, 84%; at MYLK4 it was 90%. In addition, the remaining binding at 1 µM turned out to be 96% at DAPK3; 77% at TESK1; 95% at SRPK1; 78% at TXK; 86% on NEK4; 99% at ERK4.
